Laboratory results published in patent EP0257285A2, “Method and compositions for reducing the intraocular pressure of mammals” (Whitby Research Incorporated, priority 1986, dated 1988).
Like-named read-outs stand apart in the source and are kept apart here.

How the values were obtained:
Cebus apella monkeys = experiment: Intraocular pressure (IOP) measurement after topical unilateral application to the eye of monkeys; format: in vivo; conditions: female Cebus apella monkeys, 50ul aliquots, doses 0.165, 0.5 and 1.65 mg, IOP at 0.5, 1, 2, 3, 4 and 5 hours post drug, compared to vehicle alone
Experimental: Male, albino New Zealand rabbits, and female Cebus apella monkeys are used in the example. Rabbits are used primarily to screen for undue ocular toxicity of 2-(N-propyl-N-2-phenylethylamino)-5-hydroxytetralin (active compound) before conducting experiments in monkeys.
A racemic mixture of 2-(N-propyl-N-2-phenylethylamino)-5-hydroxytetralin (active compound) is dissolved in distilled water (vehicle or carrier) on the day of the experiment. Solutions are administered in a masked manner, that is, solutions are prepared by a person that was neither involved in drug administration nor measurement of intraocular pressure (IOP) and pupil diameter (PD). The solution of the active compound is applied unilaterally with the contralateral (fellow) eye receiving vehicle only. Five monkeys are treated bilaterally with vehicle; one to two vehicle-treated monkeys are included each time a different dose of the active compound is used. Doses of active compound tested are: 0.165, 0.5 and 1.65 mg.
After taking two baseline (0 time) measurements, aliquots (50ul) of the solution of active compound and/or vehicle, only, are administered topically. Subsequently, IOP measurements are made at 0.5, 1, 2, 3, 4 and 5 hours post drug.

rabbits = conditions: cited from earlier work
monkeys = conditions: Curr. Eye Res. 2, 281-288; cited from earlier work
[1] = rabbits, Curr. Eye Res. 2, 281-288 and 3, 307-314

Row | SMILES | intraocular pressure (Cebus apella monkeys) | intraocular pressure of rabbits (rabbits; rabbit, in vivo) | intraocular pressure of monkeys (monkeys) | intraocular pressure of rabbits (rabbits; [1])
1 | CCCN(CCc1ccccc1)C1CCc2c(O)cccc2C1 (racemic) [active compound, 2-(N-propyl-N-2-phenylethylamino)-5-hydroxytetralin] | effectively lower the intraocular pressure | – | – | –
2 | CC(C)C[C@H]1C(=O)N2CCC[C@H]2[C@]2(O)O[C@](NC(=O)[C@@H]3C=C4c5cccc6[nH]c(Br)c(c56)C[C@H]4N(C)C3)(C(C)C)C(=O)N12 [Bromocriptine] | – | lower the intraocular pressure of rabbits | – | –
3 | CN1C[C@H](CC#N)C[C@@H]2c3cccc4[nH]c(Cl)c(c34)C[C@H]21 [lergotrile] | – | – | lowered the intraocular pressure of monkeys | lower the intraocular pressure of rabbits
4 | CCCN1C[C@H](CSC)C[C@@H]2c3cccc4[nH]cc(c34)C[C@H]21 [pergolide] | – | – | lowered the intraocular pressure of monkeys | lower the intraocular pressure of rabbits
